Reference: ChEMBL document CHEMBL1909046, “DrugMatrix in vitro pharmacology data”

What was measured:
[1] = molecular target: T1, Alpha-2C adrenergic receptor (Homo sapiens, UniProt P18825); assay: DRUGMATRIX: Adrenergic Alpha-2C radioligand binding (ligand: [3H] MK-912); type: cell membranes, Sf9, Membrane; details: sf9
T1 sequence (P18825 whole entry): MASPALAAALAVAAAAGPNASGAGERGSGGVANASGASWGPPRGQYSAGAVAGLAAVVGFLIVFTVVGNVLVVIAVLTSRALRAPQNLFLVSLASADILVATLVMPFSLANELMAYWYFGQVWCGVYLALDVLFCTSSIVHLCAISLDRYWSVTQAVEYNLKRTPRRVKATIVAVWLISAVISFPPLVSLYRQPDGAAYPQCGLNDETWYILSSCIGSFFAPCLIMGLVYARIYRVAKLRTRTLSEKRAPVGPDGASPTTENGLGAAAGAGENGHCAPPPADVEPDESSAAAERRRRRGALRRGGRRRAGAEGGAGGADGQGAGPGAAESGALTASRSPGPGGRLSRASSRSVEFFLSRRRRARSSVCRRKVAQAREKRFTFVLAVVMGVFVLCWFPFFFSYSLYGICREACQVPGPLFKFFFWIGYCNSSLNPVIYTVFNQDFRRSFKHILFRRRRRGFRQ

[2] = DRUGMATRIX: Calcium Channel Type L, Phenylalkylamine radioligand binding (ligand: [3H] (-)-Desmethoxyverapamil (D-888)); type: cell membranes, Rattus norvegicus, Wistar, Brain, Membrane; details: Not Active = under 50% inhibition at 10 µM
[3] = molecular target: Sodium-dependent dopamine transporter (Homo sapiens, UniProt Q01959); assay: DRUGMATRIX: Dopamine Transporter radioligand binding (ligand: [125I] RTI-55); type: cell membranes, CHO-K1, Membrane; details: cho-k1; Not Active = under 50% inhibition at 10 µM
Sequence of Sodium-dependent dopamine transporter (Q01959 whole entry): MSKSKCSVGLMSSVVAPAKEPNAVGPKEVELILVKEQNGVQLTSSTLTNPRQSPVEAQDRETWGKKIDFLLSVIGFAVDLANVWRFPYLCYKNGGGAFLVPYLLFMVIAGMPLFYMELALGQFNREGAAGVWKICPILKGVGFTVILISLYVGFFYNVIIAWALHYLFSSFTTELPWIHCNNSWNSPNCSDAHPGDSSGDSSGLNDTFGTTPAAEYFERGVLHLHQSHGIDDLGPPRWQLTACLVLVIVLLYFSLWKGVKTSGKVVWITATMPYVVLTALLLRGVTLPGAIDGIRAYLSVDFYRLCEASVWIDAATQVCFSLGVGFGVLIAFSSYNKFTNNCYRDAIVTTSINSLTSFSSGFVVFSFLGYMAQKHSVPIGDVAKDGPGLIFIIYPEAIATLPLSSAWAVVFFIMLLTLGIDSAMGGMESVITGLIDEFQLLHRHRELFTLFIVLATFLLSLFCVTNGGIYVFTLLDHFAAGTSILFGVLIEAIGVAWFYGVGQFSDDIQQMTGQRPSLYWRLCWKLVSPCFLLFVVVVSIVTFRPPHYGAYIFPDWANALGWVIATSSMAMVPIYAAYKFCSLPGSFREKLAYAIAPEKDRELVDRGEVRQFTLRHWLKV

[4] = molecular target: T2, Neuropeptide Y receptor type 2 (Homo sapiens, UniProt P49146); type: cell membranes, Membrane; details: kan-ts; further: in other assays of this panel Not Active means under 50% inhibition at 10 µM
T2 sequence (P49146 whole entry): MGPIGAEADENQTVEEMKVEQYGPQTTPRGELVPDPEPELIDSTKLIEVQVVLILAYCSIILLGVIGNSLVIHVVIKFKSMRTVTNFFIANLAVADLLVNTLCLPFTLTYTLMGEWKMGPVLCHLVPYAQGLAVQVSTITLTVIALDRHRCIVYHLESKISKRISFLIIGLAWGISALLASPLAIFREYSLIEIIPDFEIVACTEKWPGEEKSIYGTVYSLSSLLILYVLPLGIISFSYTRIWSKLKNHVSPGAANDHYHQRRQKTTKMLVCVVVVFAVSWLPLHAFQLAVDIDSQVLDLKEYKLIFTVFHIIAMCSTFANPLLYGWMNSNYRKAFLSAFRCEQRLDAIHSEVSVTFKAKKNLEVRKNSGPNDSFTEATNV

Acetylcholinesterase = Acetylcholinesterase (Homo sapiens, UniProt P22303); assay: DRUGMATRIX: Acetylcholinesterase enzyme inhibition (substrate: acetylthiocholine); type: cell-based, HEK293; details: hek293; Not Active = under 50% inhibition at 10 µM
Sequence of Acetylcholinesterase (P22303 whole entry): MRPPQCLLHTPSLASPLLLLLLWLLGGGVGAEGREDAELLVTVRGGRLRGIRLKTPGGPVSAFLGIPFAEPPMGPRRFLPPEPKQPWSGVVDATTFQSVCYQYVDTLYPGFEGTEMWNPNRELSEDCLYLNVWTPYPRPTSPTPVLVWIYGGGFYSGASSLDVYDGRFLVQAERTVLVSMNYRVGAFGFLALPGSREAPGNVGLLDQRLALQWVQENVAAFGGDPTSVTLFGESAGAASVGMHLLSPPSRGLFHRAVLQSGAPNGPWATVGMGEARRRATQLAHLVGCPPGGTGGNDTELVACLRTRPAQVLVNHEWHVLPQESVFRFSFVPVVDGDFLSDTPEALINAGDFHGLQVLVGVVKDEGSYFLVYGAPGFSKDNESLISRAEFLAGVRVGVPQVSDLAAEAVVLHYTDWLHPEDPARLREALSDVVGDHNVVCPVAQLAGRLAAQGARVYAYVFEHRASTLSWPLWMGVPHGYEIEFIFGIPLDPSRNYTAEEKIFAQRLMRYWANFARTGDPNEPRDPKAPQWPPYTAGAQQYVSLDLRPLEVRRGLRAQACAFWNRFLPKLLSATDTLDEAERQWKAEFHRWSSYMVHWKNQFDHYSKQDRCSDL

Glucocorticoid receptor = molecular target: T3, Glucocorticoid receptor (Homo sapiens, UniProt P04150); details: hela s3; further: in other assays of this panel Not Active means under 50% inhibition at 10 µM
T3 sequence (P04150 whole entry): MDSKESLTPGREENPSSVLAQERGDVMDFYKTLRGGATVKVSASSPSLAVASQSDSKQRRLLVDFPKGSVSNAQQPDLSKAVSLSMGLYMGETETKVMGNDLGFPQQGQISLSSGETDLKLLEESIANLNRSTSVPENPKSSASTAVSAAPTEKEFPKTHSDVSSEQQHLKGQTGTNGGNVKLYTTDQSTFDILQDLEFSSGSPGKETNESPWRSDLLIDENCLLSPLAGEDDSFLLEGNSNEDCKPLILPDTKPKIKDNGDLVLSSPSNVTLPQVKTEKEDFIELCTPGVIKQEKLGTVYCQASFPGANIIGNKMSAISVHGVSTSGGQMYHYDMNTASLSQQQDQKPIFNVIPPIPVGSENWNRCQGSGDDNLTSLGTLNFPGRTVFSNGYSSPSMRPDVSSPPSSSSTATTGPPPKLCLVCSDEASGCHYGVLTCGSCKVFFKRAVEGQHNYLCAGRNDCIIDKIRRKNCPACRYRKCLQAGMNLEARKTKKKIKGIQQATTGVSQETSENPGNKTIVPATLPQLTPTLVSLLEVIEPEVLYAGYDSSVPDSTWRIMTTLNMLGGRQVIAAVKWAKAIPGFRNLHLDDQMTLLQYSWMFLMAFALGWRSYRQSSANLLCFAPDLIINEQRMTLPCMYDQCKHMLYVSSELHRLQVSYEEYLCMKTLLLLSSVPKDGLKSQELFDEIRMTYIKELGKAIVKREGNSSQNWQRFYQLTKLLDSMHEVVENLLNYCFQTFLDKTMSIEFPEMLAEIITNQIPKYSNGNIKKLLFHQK

COc1ccc(C[C@H](N)C(=O)N[C@H]2[C@@H](O)[C@H](n3cnc4c(N(C)C)ncnc43)O[C@@H]2CO)cc1 [PUROMYCIN]
Not Active: IC50 [1] | IC50 [2] | Ki [2] | IC50 [3] | IC50 [4] | IC50 (Acetylcholinesterase) | IC50 (Glucocorticoid receptor)

CARBOXYMETHYLCELLULOSE
Not Active: IC50 [1] | Ki [1] | IC50 [2] | Ki [2] | IC50 [3] | Ki [3] | IC50 [4] | Ki [4] | IC50 (Acetylcholinesterase) | Ki (Acetylcholinesterase) | IC50 (Glucocorticoid receptor) | Ki (Glucocorticoid receptor)

CHROMIC CHLORIDE
Not Active: IC50 [1] | Ki [1] | IC50 [2] | Ki [2] | IC50 [3] | Ki [3] | IC50 [4] | Ki [4] | IC50 (Acetylcholinesterase) | Ki (Acetylcholinesterase) | IC50 (Glucocorticoid receptor) | Ki (Glucocorticoid receptor)

COPPER(II) OXIDE
Not Active: IC50 [1] | Ki [1] | IC50 [2] | Ki [2] | IC50 [3] | Ki [3] | IC50 [4] | Ki [4] | IC50 (Acetylcholinesterase) | Ki (Acetylcholinesterase) | IC50 (Glucocorticoid receptor) | Ki (Glucocorticoid receptor)

POVIDONE
Not Active: IC50 [1] | Ki [1] | IC50 [2] | Ki [2] | IC50 [3] | Ki [3] | IC50 [4] | Ki [4] | IC50 (Acetylcholinesterase) | Ki (Acetylcholinesterase) | IC50 (Glucocorticoid receptor) | Ki (Glucocorticoid receptor)
